Reference: US20140329892A1, “ADMINISTRATION OF A BIS(THIOHYDRAZIDE AMIDE) COMPOUND FOR TREATING CANCERS” (priority 2011, published 2014)

What was measured:
[1] = Pharmacokinetics of I.V. bolus and continuous infusion (Alzet pump) in mice; assay type: in vivo, Mouse
Description: (§2) Mice received elesclomol salt administered in a single I.V. bolus dose of 50 mg/kg. Mice also received elesclomol salt administered by continuous infusion via Alzet pump. The pump was filled with a 40 mg/mL solution of elesclomol salt, and the solution was administered at 1 ml/hr, for a total daily dose of 32 mg/kg/day, based on average body weight of 30 g. The solution was delivered continuously for 7 days, and exposure was calculated from plasma levels collected at 70 hours post pump implantation.

[2] = tested on: HL-60 cells; experiment: Subcellular copper content by BCA assay after elesclomol-Cu treatment; assay type: cell-based, human; conditions: HL-60 cells treated for 2 hours
Description: (§1) Human peripheral blood mononuclear cells (PBMCs) from 3 independent donors and human promyelotic tumor cell line HL-60 were treated with the elesclomol-Cu complex for 2 hours. Cells were subsequently fractionated into cytosolic, nuclear or mitochondrial fractions and the subcellular copper content was determined by BCA assay.

[3] = tested on: peripheral blood mononuclear cells (PBMCs); experiment: as above; assay type: cell-based, human; conditions: PBMCs from 3 donors treated for 2 hours
Description: as §1

[4] = tested on: mitochondria isolated from HL-60 cells; experiment: MitoSox Red ROS assay in isolated mitochondria; assay type: cell-based, human; conditions: HL-60-derived mitochondria, 0.2 μM and 1 μM, 30 minutes
Description: Mitochondria isolated from PBMCs or from HL-60 cells were treated for 30 minutes with either DMSO, free copper (CuCl2) at the concentrations of 0.2 μM and 1 μM, disulfiram-Cu complex (DSF-Cu) at the concentrations of 0.2 μM and 1 μM, and elesclomol-Cu complex at the concentrations of 0.2 μM and 1 μM. Subsequent to incubation, ROS levels were measured by MitoSox Red. The results of the MitoSox Red assay are shown in FIG. 2 as mean±SD of experiments with PBMCs isolated from three independent donors or with three individual experiments with HL-60.

[5] = tested on: HL-60 cells; experiment: Cellular copper and elesclomol levels after elesclomol incubation; assay type: cell-based, human; conditions: 100 nM, 3 hours
Description: PBMCs and HL-60 cells were incubated with a vehicle (DMSO) or with 100 nM elesclomol for 3 hours. Subsequent to incubation, cellular copper levels and elesclomol levels for PBMCs and HL-60 cells were determined and are shown in FIG. 3.

[6] = Mouse toxicity study of elesclomol salt continuously administered via Alzet pump; set-up: species or system mice of strain CD1; conditions: in vivo
Description: A total of 15 mice of strain CD1 were used for the toxicity study, of which 10 were in the elesclomol salt treatment group, and 5 were in the control group. Alzet pump was filled with a total of 200 μl of infusion solution and implanted subcutaneously within 1-2 hours. The infusion solution was continuously delivered for 7 days, and the pump was replaced with a new pump at day 8.

[7] = Pharmacokinetics of 1-hour infusion in humans; conditions: Human, 200 mg/m^2
Description: as §2

[8] = tested on: HL-60 cells enriched with ^63Cu; experiment: Cellular 63Cu and 65Cu levels by ICP-MS; assay type: cell-based, human; conditions: 100 nM, 0, 0.5, 3 and 9 hours, 10% FBS medium
Description: A complex of elesclomol with ^65Cu was prepared. HL-60 cells enriched with ^63Cu were treated with 100 nM elesclomol-^65Cu or 100 nM free ^65Cu for 0, 0.5, 3 and 9 hours in 10% FBS medium. Cellular ^63Cu and ^65Cu levels were measured by inductively coupled plasma mass spectroscopy (ICP-MS).

For `CN1C(c2ccccc2)=[S][Cu]23[S]=C(c4ccccc4)N(C)[N]2C(=O)CC(=O)[N]13` [Elesclomol-Cu], which Exposure/day ([1]; mouse, in vivo, 32 mg/kg/day) is on record?
The Exposure/day was 516 h * ng/mL/d.

What about the Exposure/day ([1]; mouse, in vivo, iv, 50 mg/kg) of the same compound?
The Exposure/day was 670 h * ng/mL/d.

What about the “relative copper levels in the nuclear, cytosolic and mitochondrial fractions” value [2] of the same compound?
The value was “copper levels increased only in HL-60 cells, particularly, in the mitochondrial fraction”.

What about the “relative copper levels in the nuclear, cytosolic and mitochondrial fractions” value [3] of the same compound?
The value was “increased only in HL-60 cells”.

And the “ROS levels (MitoSox Red)” value [4]?
Its value is “induces ROS in HL-60-derived mitochondria”.

Which cellular copper levels ([5]; HL-60 cells) does the source give for `CN(NC(=O)CC(=O)NN(C)C(=S)c1ccccc1)C(=S)c1ccccc1` [elesclomol, Elesclomol] here?
The cellular copper levels was “remarkably and selectively elevated”.

And the cellular elesclomol levels ([5]; HL-60 cells compared with PBMCs)?
Its cellular elesclomol levels is “slightly lower than that in PBMCs”.

What about the Exposure/day ([1]; Mouse, elesclomol salt I.V. bolus, 50 mg/kg) of the same compound?
The Exposure/day was 5140 h * ng/mL/d.

What about the Exposure/day ([1]; Mouse, elesclomol salt by continuous infusion (pump), 32 mg/kg/d, calculated from plasma levels at 70 hours post pump implantation) of the same compound?
Its Exposure/day is 1183 h * ng/mL/d.

And the “overall toxicity / adverse effects” value [6]?
Its value is “not associated with acute toxicity”.

And the Exposure/day [7]?
The Exposure/day was 4938 h * ng/mL/d.

With `CN1C(c2ccccc2)=[S][65Cu]23[S]=C(c4ccccc4)N(C)[N]2C(=O)CC(=O)[N]13` [elesclomol-^65Cu] as the compound, how does the “accumulation of ^63Cu in cells” value [8] read?
Its value is “cause accumulation of ^63Cu in HL-60 cancer cells”.

And the “amount of copper accumulated in the cells versus length of exposure” value [8]?
Its value is “directly proportional to the length of time”.
